These results are taken from patent US8993544B2, “Carbamoylphosphonates as inhibitors and uses thereof” (priority 2009, dated 2015).

In series [1] the target is T1, TACE (Homo sapiens, UniProt P78536).
T1 construct: purchased R&D Systems, Minneapolis
Description: Determination of inhibitory potency, TACE. It counts as biochemical. The procedure:
(§1) Recombinant enzymes, human MMP-1, MMP-2, MMP-3, MMP-8, MMP-9, MMP-12, MMP-13 and TACE (R&D Systems, Minneapolis) were incubated at four different concentrations with the relevant colorimetric or fluorescent peptide substrates (R&D Systems, Minneapolis) for 3 h. The tested compounds were added at four to six different concentrations and the inhibitory potencies expressed in a colorimetric change, was measured by an ELISA or fluorimeter.

The target of series [2] is T2, human MMP-3 (Homo sapiens, UniProt P08254).
T2 construct: purchased R&D Systems, Minneapolis
The experiment in a line: Determination of MMP inhibitory potency, MMP-3. It counts as biochemical. Here is the method: as §1

Series [3] has as its target T3, MMP-2 (Homo sapiens, UniProt P08253).
T3 sequence (P08253 110-660): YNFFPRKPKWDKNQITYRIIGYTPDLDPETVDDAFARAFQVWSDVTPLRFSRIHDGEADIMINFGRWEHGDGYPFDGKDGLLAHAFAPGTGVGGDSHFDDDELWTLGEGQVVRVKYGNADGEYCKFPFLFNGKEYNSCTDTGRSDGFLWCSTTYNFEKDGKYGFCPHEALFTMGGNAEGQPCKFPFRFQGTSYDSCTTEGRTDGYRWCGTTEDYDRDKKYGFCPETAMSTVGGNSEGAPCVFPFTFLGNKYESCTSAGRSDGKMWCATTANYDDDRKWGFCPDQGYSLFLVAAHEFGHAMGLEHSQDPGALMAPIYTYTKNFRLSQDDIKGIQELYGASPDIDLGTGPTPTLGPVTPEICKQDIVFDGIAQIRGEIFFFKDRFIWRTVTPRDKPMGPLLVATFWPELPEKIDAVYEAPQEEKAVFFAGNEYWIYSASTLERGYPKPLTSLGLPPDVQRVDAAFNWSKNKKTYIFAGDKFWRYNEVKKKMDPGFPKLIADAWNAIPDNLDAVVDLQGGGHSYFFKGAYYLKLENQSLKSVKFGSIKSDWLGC
The experiment in a line: Determination of MMP inhibitory potency, MMP-2. It counts as biochemical. Set-up: purchased R&D Systems, Minneapolis. The procedure:
as §1

The target in series [4] is T4, human MMP-8 (Homo sapiens, UniProt P22894).
T4 construct: purchased R&D Systems, Minneapolis
The experiment in a line: Determination of MMP inhibitory potency, MMP-8. It counts as biochemical. Here is the method: as §1

The target in series [5] is T5, human MMP-13 (Homo sapiens, UniProt P45452).
T5 construct: purchased R&D Systems, Minneapolis
The experiment in a line: Determination of MMP inhibitory potency, MMP-13. Format: biochemical. Here is the method: as §1

For series [6], the target named is T6, human MMP-9 (Homo sapiens, UniProt P14780).
T6 construct: purchased R&D Systems, Minneapolis
The experiment in a line: Determination of MMP inhibitory potency, MMP-9. It counts as biochemical. The procedure: as §1

For series [7], the target named is T7, human MMP-12 (Homo sapiens, UniProt P39900).
T7 construct: purchased R&D Systems, Minneapolis
Description: Determination of MMP inhibitory potency, MMP-12. Format: biochemical. The procedure:
as §1

Series [8] has as its system MMP and/or ADAM enzyme. Description: Duration of inhibitory effect on the enzymes inhibited. It counts as biochemical, human. Here is the method: Previously, it has been established that cis-2-aminocyclohexycarbamoyl phosphonic acid (cis-ACCP), listed for the purpose of comparison in Tables 2 and 3 as “control”, was an effective nontoxic, in vivo active antimetastatic compound. […] In the study leading to the subject invention, it was determined that the inhibitory effect could be, and in fact was prolonged by substituting carbamoylphosphonic functionality with aromatic ring functionality as in the compounds of the invention. […]
as §1

The subject of series [9] is tumor invasion. Description: In vitro model of tumor invasion (Boyden chamber, reconstituted basement membrane). It counts as cell-based. The conditions noted are these: read-out: % Invasion-Inhibition by 50 μM drug. The procedure: The compound was also evaluated in an in vivo experimental model of metastasis using B16F10 tumor cells in C57B1 mice. […] The assay was carried out in a Boyden chamber with a reconstituted basement membrane (Matrigal).

Series [10] relates to B16F10 tumor cells. Description: Murine melanoma model of experimental metastasis. Format: in vivo, C57B1 mice. The conditions noted are these: daily for three weeks, B16F10 cells i.v.
Description: Experimental metastasis was studied in the murine melanoma model. In this model, B16F10 tumor cells (50 k) were injected into the tail vein of C57B1 6 week old female mice. After 21 days, the metastases formed on the lungs of the mice were counted after appropriate fixation. […] One group received the inhibitor intraperitoneally and the other group orally, dissolved in PBS. Mice were monitored for toxic symptoms at alternate days.
For series [11] the following is noted: mouse, in vivo.
Description: The initial dose was set to 50 mg/kg as in the previous studies.
One group received the inhibitor intraperitoneally and the other group orally, dissolved in PBS. Mice were monitored for toxic symptoms at alternate days.
For series [12], the target named is T3, MMP-2. The experiment in a line: Time dependent inhibition of MMP-2 (period of inhibition). Format: biochemical. The conditions noted are these: MMP-2.

Structures are written as SMILES. Like-named read-outs stand apart in the source and are kept apart here.

T1 sequence (P78536 215-824): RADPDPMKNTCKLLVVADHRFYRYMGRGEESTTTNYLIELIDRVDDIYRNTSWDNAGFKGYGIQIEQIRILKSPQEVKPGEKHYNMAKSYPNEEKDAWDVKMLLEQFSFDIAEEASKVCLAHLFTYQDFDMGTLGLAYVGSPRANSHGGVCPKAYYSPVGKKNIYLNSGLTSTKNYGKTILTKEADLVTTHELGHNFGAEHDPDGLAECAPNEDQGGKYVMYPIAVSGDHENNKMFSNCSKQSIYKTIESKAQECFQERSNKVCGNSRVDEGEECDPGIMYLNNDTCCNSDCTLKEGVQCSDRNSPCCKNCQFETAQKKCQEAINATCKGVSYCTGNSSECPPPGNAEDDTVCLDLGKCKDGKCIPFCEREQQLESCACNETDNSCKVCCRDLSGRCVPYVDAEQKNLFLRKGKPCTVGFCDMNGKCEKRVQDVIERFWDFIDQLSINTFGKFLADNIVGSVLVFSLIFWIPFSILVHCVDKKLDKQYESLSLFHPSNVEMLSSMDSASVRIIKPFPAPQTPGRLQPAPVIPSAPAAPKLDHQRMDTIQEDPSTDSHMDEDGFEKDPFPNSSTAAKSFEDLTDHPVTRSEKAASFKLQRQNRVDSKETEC
T6 sequence (P14780 94-707): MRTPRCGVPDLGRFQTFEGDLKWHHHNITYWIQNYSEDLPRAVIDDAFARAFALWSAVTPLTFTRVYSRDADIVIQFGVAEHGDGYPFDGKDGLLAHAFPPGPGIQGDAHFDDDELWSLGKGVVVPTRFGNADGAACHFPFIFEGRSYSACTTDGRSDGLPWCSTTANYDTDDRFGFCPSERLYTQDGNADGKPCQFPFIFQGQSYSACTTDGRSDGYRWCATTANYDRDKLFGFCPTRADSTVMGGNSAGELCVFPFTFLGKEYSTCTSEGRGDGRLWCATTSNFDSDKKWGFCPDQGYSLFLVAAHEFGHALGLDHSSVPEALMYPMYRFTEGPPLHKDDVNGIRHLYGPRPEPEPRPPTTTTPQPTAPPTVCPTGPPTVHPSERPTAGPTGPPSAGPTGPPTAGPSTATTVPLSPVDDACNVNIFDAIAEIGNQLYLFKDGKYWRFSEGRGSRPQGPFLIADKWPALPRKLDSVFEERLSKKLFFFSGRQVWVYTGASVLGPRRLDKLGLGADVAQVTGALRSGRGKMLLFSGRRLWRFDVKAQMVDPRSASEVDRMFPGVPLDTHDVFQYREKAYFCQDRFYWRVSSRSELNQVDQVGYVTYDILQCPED
T2 sequence (P08254 100-477): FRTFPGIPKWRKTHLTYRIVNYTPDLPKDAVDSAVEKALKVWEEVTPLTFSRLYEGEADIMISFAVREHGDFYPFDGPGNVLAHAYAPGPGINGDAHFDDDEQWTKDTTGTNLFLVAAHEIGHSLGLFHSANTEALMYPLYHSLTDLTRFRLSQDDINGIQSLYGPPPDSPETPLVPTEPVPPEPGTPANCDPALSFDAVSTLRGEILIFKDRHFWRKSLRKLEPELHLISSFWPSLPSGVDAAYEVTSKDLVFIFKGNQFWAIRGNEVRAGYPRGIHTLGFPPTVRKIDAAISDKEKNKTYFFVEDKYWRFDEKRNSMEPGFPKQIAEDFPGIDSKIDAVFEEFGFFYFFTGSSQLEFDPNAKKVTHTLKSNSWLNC
T4 sequence (P22894 101-467): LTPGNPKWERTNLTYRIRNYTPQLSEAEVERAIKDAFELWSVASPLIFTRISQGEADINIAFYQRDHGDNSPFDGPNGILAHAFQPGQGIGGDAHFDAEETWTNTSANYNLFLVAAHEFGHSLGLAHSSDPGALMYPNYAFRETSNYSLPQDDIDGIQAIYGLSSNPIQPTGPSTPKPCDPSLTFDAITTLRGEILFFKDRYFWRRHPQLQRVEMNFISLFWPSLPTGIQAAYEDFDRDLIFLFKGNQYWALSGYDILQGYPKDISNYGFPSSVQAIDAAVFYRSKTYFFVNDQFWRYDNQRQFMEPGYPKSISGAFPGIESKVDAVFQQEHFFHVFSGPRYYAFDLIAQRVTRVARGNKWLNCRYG
T7 sequence (P39900 106-470): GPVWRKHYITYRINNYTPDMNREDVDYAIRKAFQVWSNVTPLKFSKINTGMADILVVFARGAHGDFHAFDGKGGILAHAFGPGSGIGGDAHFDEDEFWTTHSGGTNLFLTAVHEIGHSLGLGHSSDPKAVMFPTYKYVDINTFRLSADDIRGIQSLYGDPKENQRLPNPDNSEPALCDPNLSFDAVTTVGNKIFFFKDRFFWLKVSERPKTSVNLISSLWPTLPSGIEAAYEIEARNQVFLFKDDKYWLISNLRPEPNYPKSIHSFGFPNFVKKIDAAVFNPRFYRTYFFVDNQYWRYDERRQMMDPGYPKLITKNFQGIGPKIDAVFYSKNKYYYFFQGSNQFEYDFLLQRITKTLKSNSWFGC

`O=C(NCCCCCCCCNS(=O)(=O)c1ccc(Oc2ccccc2)cc1)P(=O)(O)O` [Compound 7]: the IC50 (in general, the point on the concentration scale where inhibition reaches its midpoint) is 17 µM in series [1] (read-out: IC50 (μM) on TACE); > 100 µM in series [2] (read-out: IC50 (μM) on MMP-3); > 100 µM in series [3] (read-out: IC50 (μM) on MMP-2); > 100 µM in series [4] (read-out: IC50 (μM) on MMP-8); > 100 µM in series [5] (read-out: IC50 (μM) on MMP-13); > 100 µM in series [6] (read-out: IC50 (μM) on MMP-9). Besides, in [7] (read-out: IC50 (μM) on MMP-12), the IC50 is > 100 µM. The “Duration of inhibitory effect” value in [8] was >180 min.

Regarding `O=C(NCCCCCCNS(=O)(=O)c1ccc(Oc2ccccc2)cc1)P(=O)(O)O` [Compound 5, 1-[4-Phenoxybenzenesulfonamido]-6-[phosphonoformamido]hexane], the inhibition (as a rule, how much of the control response was suppressed) at 50 µM in series [9] was 77%. Also, the IC50 in series [1] (read-out: IC50 (μM) on TACE) is 20 µM; in series [2] (read-out: IC50 (μM) on MMP-3) it was > 100 µM; in series [3] (read-out: IC50 (μM) on MMP-2), 5 µM; in series [4] (read-out: IC50 (μM) on MMP-8), > 100 µM; in series [5] (read-out: IC50 (μM) on MMP-13), 80 µM; in series [6] (read-out: IC50 (μM) on MMP-9), > 100 µM. The IC50 in series [7] (read-out: IC50 (μM) on MMP-12) was > 100 µM. Further, the “% reduction in lung metastases relative to control” value in series [10] (Intraperitoneal, 25 mg/kg) is recorded as 90%; in series [10] (Per-oral, 50 mg/kg) it was 50%; in series [10] (Per-oral, 150 mg/kg), 86%. Moreover, in [11], the “toxic effects in mice” value is “without any toxic effects”. Also, the “toxicity in mice (text, FIG. 5)” value in series [11] is given as “toxic”. Further, the “Toxicity in mice (Table 4)” value in series [11] (ip, 50 mg/kg) is listed as “Toxic”.

For the compound `N[C@H]1CCCC[C@H]1NC(=O)P(=O)(O)O` (relative stereo) [YK-162, cis-2-aminocyclohexylcarbamoyl phosphonic acid, reference compound], the inhibition at 50 µM in [9] amounted to 15%. The IC50 in series [1] was > 100 µM; in series [2], > 100 µM; in [3] it was 4 µM; in [4], > 100 µM; in series [5], > 100 µM; in series [6] it was 20 µM. The IC50 in [7] is > 100 µM. For the same compound, in [12], the “period of MMP-2 inhibition” value is on record as “about 30 minutes”. Also, the “Duration of inhibitory effect” value in series [8] is <30 min.

In the case of `N[C@@H](CNC(=O)P(=O)(O)O)CNS(=O)(=O)c1ccc(Oc2ccccc2)cc1` [Compound 8S, (S)-N-[2-amino-3-(4-phenoxybenzenesulfonamido)propyl]carbamoylphosphonic acid], in series [9], the inhibition at 50 µM is > 100%. The IC50 was > 100 µM in [1] (read-out: IC50 (μM) on TACE); 15 µM in [3] (read-out: IC50 (μM) on MMP-2); > 100 µM in series [4] (read-out: IC50 (μM) on MMP-8); > 100 µM in series [5] (read-out: IC50 (μM) on MMP-13); > 100 µM in series [6] (read-out: IC50 (μM) on MMP-9); > 100 µM in series [7] (read-out: IC50 (μM) on MMP-12). In addition, the “Duration of inhibitory effect” value in series [8] is >180 min.

With `O=C(NCCCCNS(=O)(=O)c1ccc(Oc2ccccc2)cc1)P(=O)(O)O` [Compound 3, 1-[4-phenoxybenzenesulfonamido]-4-[phosphonoformamido]butane], the melting point (commonly the temperature of the solid-liquid transition) fell in the range of 143 to 145 °C. The inhibition at 50 µM in [9] turned out to be 60%. In addition, in series [1] (read-out: IC50 (μM) on TACE), the IC50 is > 100 µM. For the same compound, in series [2] (read-out: IC50 (μM) on MMP-3), the IC50 is > 100 µM. Besides, the IC50 in [3] (read-out: IC50 (μM) on MMP-2) stood at 7 µM. Further, in series [4] (read-out: IC50 (μM) on MMP-8), the IC50 is > 100 µM. In addition, the IC50 in [5] (read-out: IC50 (μM) on MMP-13) worked out at 25 µM. Also, the IC50 in series [6] (read-out: IC50 (μM) on MMP-9) is > 100 µM. In addition, the IC50 in series [7] (read-out: IC50 (μM) on MMP-12) was > 100 µM. Also, the “Duration of inhibitory effect” value in series [8] is >180 min.
